Reference: publication doi:10.1101/2025.01.17.633651, “Markovian State Models uncover Casein Kinase 1 dynamics that govern circadian period” (bioRxiv, 2025)

Target: CK1 D132A
Experiment: Radioactive (32P-ATP) timecourse kinase assay, CK1 D132A mutant
Assay type: biochemical, human
Settings: 200 μM peptide, 20 nM CK1 (primed) or 200 nM CK1 (unprimed), 750 μM ATP, 30 °C (Figure S15B-C)
Experimental: PER FASP region peptides were synthesized and purified to 95% or higher (SABio). Two independent reaction mixtures of 50 μL containing 200 μM of the FASP or in reaction buffer (25 mM Tris pH 7.5, 7.5 mM MgCl2, 1 mM DTT, 0.1 mg/mL BSA) were preincubated for 5 minutes with or without 20 nM CK1 (for primed FASP) or 200 nM CK1 (for unprimed FASP) and the reaction was started by addition of 750 μM of UltraPure ATP (Promega) containing 1–2 μCi of X-^32p ATP (Perkin Elmer). After incubation of the reaction mix at 30 °C, an 8 μL aliquot of the reaction mix was transferred to P81 phosphocellulose paper (Reaction Biology Corp) at the indicated timepoints. The P81 paper was washed three times with 75 mM of orthophosphoric acid and once with acetone. The air-dried P81 paper was counted for Pi incorporation using a scintillation counter (Perkin Elmer) by Cherenkov counting. Results shown are from four independent assays.

Substance	kinase activity, CK1 D132A compared with CK1 WT
RKKKTEVSAHLSSLTLPGKAESVVSLTSQ [unprimed FASP peptide, synthetic mouse PER2 FASP region peptide, unprimed CK1 substrate]	dramatic loss in activity
RKKKTEVSAHLSSLTLPGKAEpSVVSLTSQ [primed FASP peptide, synthetic mouse PER2 FASP peptide phosphorylated at the priming serine]	more modest effect
